Results on one compound are retold here after patent US20240199616A1, “BICYCLIC COMPOUNDS AS ALLOSTERIC SHP2 INHIBITORS” (Revolution Medicines, Inc., priority 2017, published 2024).

The target in this assay is SHP2 (Homo sapiens (Human), UniProt Q06124). The assay is described as follows: SHP2 allosteric inhibition assay (DiFMUP prompt fluorescence). It counts as biochemical. As to conditions: 0.2 nM SHP2 incubated with 0.5 μM Activating Peptide 1 or 2, 30-60 min at 25° C., surrogate substrate DiFMUP, kinetic read. The text has this:
Without wishing to be bound by theory, SHP is allosterically activated through binding of bis-tyrosyl-phosphorylated peptides to its Src Homology 2 (SH2) domains. The latter activation step leads to the release of the auto-inhibitory interface of SHP2, which in turn renders the SHP2 protein tyrosine phosphatase (PTP) active and available for substrate recognition and reaction catalysis. The catalytic activity of SHP2 was monitored using the surrogate substrate DiFMUP in a prompt fluorescence assay format.
The phosphatase reactions were performed at room temperature in 96-well black polystyrene plate, flat bottom, non-binding surface (Corning, Cat #3650) using a final reaction volume of 100 μL and the following assay buffer conditions: 50 mM HEPES, pH 7.2, 100 mM NaCl, 0.5 mM EDTA, 0.05% P-20, 1 mM DTT.
The inhibition of SHP2 by compounds of the disclosure (concentrations varying from 0.00005-10 μM) was monitored using an assay in which 0.2 nM of SHP2 was incubated with 0.5 μM of Activating Peptide 1 (sequence: H2N-LN(pY)IDLDLV(dPEG8)LST(pY)ASINFQK-amide) or Activating Peptide 2 (sequence: H2N-LN(pY)AQLWHA(dPEG8)LTI(pY)ATIRRF-amide). […]

Sequence of SHP2 (Q06124 whole entry): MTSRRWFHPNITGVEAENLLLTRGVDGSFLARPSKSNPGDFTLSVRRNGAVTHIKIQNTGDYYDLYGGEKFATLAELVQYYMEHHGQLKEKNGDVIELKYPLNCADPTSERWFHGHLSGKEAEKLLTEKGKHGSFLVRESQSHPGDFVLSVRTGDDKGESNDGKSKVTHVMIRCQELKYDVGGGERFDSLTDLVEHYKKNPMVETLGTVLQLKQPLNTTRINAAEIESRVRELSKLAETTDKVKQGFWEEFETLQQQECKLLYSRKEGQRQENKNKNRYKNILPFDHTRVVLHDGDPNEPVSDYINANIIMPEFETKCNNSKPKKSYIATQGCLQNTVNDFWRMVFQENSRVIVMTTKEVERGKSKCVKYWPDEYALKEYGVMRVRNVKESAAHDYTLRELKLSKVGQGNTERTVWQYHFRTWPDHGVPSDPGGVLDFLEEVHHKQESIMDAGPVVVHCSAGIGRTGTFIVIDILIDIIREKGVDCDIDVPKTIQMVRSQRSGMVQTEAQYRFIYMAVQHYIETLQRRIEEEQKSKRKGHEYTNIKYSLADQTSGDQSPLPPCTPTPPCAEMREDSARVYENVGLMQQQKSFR

As to `Cc1nc(N2CCC3(CCC[C@H]3N)CC2)c2cncn2c1-c1cccc(Cl)c1Cl` [Compound 3, (1R)-8-[5-(2,3-dichlorophenyl)-6-methylimidazo[1,5-a]pyrazin-8-yl]-8-azaspiro[4.5]decan-1-amine], the IC50 (commonly the midpoint of a concentration-inhibition curve) amounted to 34 nM.
